Laboratory results taken from patent publication US4894388A, “Glycosidase inhibitors and use thereof” (priority 1988, dated 1990).

What was measured:
Assay type in all cases: biochemical
β-D-mannosidase = target: T1, β-D-mannosidase (Homo sapiens, UniProt O00462); assay: Inhibition of β-D-mannosidase in human liver extract; conditions: 1 mM inhibitor; 0.5 mM substrate; optimal pH; mean of 2-4 determinations
T1 construct: The glycosidase activities in an extract of normal human liver were assayed; from tissue; host or cells: post mortem human liver, 37,000 g supernatant
T1 sequence (O00462 18-879): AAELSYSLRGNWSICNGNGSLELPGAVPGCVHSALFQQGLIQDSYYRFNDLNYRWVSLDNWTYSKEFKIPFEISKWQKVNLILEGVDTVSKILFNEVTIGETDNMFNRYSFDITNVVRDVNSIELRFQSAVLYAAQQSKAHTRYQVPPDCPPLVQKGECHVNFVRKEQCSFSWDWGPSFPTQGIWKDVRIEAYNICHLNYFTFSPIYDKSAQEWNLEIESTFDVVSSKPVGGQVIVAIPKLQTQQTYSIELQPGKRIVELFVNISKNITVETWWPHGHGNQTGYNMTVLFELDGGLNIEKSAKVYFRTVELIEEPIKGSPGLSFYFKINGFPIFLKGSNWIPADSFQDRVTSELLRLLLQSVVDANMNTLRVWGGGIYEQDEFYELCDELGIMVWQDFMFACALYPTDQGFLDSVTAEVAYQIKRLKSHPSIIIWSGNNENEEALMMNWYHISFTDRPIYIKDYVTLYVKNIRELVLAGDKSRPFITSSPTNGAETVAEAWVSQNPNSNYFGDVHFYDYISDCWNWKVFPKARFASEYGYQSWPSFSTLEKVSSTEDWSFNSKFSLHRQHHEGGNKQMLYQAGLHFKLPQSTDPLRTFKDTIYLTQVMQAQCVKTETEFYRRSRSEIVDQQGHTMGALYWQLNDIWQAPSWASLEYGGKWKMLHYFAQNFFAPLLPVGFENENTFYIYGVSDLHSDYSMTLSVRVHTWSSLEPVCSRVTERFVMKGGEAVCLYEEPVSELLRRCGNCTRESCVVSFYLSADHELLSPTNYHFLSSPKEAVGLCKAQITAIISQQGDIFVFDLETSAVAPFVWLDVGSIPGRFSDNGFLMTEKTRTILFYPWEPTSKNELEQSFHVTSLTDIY
Experimental: (§1) Post mortem human liver, which had been stored at -20° C. until required was homogenized in deionized water (50%, w/v) in a Potter-Elvehjem homogenizer and then centrifuged at 37,000 g for 30 min in an MSE 18 centrifuge. The resultant supernatant was used as the source of enzymic activities.
(§2) The glycosidase activities in an extract of normal human liver were assayed by using the appropriate fluorigenic 4-methylumbelliferyl glycoside substrate (Koch-Light, Haverhill, Suffolk, U.K.) with a concentration of 0.5 mM at the optimal pH of each enzyme [Burditt et al., Clin. Chim. Acta 140, 201-209 (1980)]. Human liver acidic (lysomal) and neutral (cystosolic) α-D-mannosidases were assayed similarly at their pH-optima, of 4.0 and 6.5, respectively, after separation by affinity chromatography on concanavalin A-Sepharose® (Pharmacia Ltd, Milton Keynes, Bucks, U.K.) [Phillips et al., Biochem. J. 153, 579-587 (1976)]. The residual intermediate (Golgi) α-mannosidase II activity in extracts of fibroblasts from a patient with the lysosomal storage disease, mannosidosis, was assayed at pH 5.75 using the synthetic substrate (Burditt et al, Ibid.). The specificity of the inhibitors was determined by assaying the glycosidases in the presence and absence of a 1 mM solution of each compound. The nature of the inhibition and the value of Ki were determined using the Dixon graphical procedure.
(§3) Enzymic activities were measured in the presence and absence of 1 mM inhibitor. Inhibition (%) was calculated as the fraction of activity lost in the presence of inhibitor. The values are means of two to four independent determinations.

N-acetyl hexosaminidase = assay: Inhibition of N-acetyl hexosaminidase in human liver extract; conditions: 1 mM inhibitor; 0.5 mM substrate; optimal pH; mean of 2-4 determinations
Experimental: as §1, §2, §3

α-L-fucosidase = target: T2, α-L-fucosidase (Homo sapiens, UniProt P04066); assay: Inhibition of α-L-fucosidase in human liver extract; conditions: for inhibition at 1000 µM: 1 mM inhibitor, 0.5 mM substrate, optimal pH, mean of 2-4 determinations
T2 construct: The glycosidase activities in an extract of normal human liver were assayed; from tissue; host or cells: post mortem human liver, 37,000 g supernatant
T2 sequence (P04066 32-466): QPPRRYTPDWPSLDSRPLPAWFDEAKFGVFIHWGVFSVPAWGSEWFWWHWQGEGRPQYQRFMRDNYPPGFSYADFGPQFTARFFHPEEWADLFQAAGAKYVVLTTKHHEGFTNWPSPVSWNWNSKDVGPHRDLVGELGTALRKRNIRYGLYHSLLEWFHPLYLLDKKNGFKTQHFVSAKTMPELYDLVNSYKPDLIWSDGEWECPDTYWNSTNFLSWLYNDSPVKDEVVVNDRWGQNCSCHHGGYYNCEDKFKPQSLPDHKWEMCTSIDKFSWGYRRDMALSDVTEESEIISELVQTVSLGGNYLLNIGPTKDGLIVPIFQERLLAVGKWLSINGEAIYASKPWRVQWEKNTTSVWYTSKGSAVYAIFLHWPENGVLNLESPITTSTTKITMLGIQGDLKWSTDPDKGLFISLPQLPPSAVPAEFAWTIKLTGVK
Experimental: The fraction of activity lost in the presence of the inhibitor was calculated for each pH; =α-L-fucosidase activity; o=inhibition (%).
as §1, §2, §3

inhibition at 1000 µM (β-D-mannosidase) [%]	Inhibition (%) (N-acetyl hexosaminidase)	inhibition at 1000 µM (α-L-fucosidase) [%]	nature of the inhibition (α-L-fucosidase; Dixon graphical procedure)	pH-dependence of inhibition (α-L-fucosidase; FIG. 1)	Ki (α-L-fucosidase; pH 5.5, Dixon graphical procedure) [µM]	Structure (SMILES)
0	15	74	competitive	pH-dependent	50	OC[C@H](O)[C@H]1[C@H](O)[C@H](O)CN1Cc1ccccc1 [N-benzyl DIA, N-benzyl-1,4-dideoxy-1,4-imino-L-allitol]
4	37	28	–	–	–	CN1C[C@@H](O)[C@@H](O)[C@@H]1[C@@H](O)CO [N-methyl DIA, N-methyl-1,4-dideoxy-1,4-imino-L-allitol]

Structure (SMILES)	inhibition at 1000 µM (β-D-mannosidase) [%]	Inhibition (%) (N-acetyl hexosaminidase)	inhibition at 1000 µM (α-L-fucosidase) [%]	nature of the inhibition (α-L-fucosidase; Dixon graphical procedure)	pH-dependence of inhibition (α-L-fucosidase; FIG. 1)	Ki (α-L-fucosidase; pH 5.5, Dixon graphical procedure) [µM]
OC[C@H](O)[C@@H]1NC[C@@H](O)[C@H]1O [DIA, 1,4-dideoxy-1,4-imino-L-allitol]	14	42	60	–	–	–
